From ChEMBL document CHEMBL5543111, “Uncovering PROTAC Sensitivity and Efficacy by Multidimensional Proteome Profiling: A Case for STAT3” (J Med Chem, 2024)
The source made the active and inactive calls. No cut-off for these calls is given here.

Tests used:
[1] = target: Protein cereblon/Bromodomain-containing protein 4 (Homo sapiens) (UniProt O60885+Q96SW2); test: PROTAC activity at CRBN/BRD4 in human A549 cells assessed as degradation of BRD4 protein level at 100 nM incubated for 24 hrs; type: cell-based
Sequence of Protein cereblon/Bromodomain-containing protein 4 (Homo sapiens) (Q96SW2 whole entry, looked up, other chains not shown): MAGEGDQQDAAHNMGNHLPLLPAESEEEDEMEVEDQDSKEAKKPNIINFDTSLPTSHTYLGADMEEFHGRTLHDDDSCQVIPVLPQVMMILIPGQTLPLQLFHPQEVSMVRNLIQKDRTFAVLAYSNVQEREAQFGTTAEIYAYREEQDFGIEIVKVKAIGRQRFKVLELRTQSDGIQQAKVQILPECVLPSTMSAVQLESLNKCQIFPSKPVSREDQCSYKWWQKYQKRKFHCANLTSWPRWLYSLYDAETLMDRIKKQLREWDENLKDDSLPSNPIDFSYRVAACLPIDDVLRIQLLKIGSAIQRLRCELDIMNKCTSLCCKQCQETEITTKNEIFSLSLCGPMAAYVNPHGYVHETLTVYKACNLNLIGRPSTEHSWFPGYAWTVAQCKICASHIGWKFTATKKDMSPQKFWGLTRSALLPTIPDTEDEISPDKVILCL

[2] = target: Protein cereblon/Bromodomain-containing protein 3 (Homo sapiens) (UniProt Q15059+Q96SW2); test: PROTAC activity at CRBN/BRD3 in human A549 cells assessed as degradation of BRD3 protein level at 100 nM incubated for 24 hrs; type: cell-based
Sequence of Protein cereblon/Bromodomain-containing protein 3 (Homo sapiens) (Q15059 2-726 limits assumed): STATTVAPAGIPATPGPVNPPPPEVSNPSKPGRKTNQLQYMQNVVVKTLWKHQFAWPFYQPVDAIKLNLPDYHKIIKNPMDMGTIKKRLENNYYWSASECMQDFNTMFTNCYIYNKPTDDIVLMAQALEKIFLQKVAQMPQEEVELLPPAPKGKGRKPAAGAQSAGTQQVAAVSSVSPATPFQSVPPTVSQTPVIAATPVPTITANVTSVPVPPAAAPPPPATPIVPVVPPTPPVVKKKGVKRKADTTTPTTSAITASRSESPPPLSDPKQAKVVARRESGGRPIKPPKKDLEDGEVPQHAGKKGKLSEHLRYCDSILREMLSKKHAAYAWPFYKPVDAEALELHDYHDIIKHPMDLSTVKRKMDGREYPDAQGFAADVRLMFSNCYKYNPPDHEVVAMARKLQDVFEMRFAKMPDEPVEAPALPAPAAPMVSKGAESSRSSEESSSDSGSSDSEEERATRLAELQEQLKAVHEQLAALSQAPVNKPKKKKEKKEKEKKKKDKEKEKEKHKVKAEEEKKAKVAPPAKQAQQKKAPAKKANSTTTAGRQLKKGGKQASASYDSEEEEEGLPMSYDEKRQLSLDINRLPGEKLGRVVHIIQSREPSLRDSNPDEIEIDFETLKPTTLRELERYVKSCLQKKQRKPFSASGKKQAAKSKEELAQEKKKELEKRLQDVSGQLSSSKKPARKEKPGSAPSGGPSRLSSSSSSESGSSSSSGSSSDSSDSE
Sequence of Protein cereblon/Bromodomain-containing protein 3 (Homo sapiens) (Q96SW2 whole entry partner): as the sequence (Q96SW2 whole entry, looked up, other chains not shown) above

A549 [3] = test: Upregulation of p53 protein expression in human A549 cells at 10 to 100 nM; type: functional, cell-based; details: dose 10-100 nM, time 3-24 hrs, TDE = time-dependent effect
A549 [4] = test: Upregulation of p53 protein expression in human A549 cells measured after 3 to 24 hrs; type: functional, cell-based; details: dose 10-100 nM, time 3-24 hrs
[5] = target: Protein cereblon/Bromodomain-containing protein 2 (Homo sapiens) (UniProt P25440+Q96SW2); test: PROTAC activity at CRBN/BRD2 in human A549 cells assessed as degradation of BRD2 protein level at 100 nM incubated for 24 hrs; type: cell-based
Sequence of Protein cereblon/Bromodomain-containing protein 2 (Homo sapiens) (P25440 whole entry, looked up): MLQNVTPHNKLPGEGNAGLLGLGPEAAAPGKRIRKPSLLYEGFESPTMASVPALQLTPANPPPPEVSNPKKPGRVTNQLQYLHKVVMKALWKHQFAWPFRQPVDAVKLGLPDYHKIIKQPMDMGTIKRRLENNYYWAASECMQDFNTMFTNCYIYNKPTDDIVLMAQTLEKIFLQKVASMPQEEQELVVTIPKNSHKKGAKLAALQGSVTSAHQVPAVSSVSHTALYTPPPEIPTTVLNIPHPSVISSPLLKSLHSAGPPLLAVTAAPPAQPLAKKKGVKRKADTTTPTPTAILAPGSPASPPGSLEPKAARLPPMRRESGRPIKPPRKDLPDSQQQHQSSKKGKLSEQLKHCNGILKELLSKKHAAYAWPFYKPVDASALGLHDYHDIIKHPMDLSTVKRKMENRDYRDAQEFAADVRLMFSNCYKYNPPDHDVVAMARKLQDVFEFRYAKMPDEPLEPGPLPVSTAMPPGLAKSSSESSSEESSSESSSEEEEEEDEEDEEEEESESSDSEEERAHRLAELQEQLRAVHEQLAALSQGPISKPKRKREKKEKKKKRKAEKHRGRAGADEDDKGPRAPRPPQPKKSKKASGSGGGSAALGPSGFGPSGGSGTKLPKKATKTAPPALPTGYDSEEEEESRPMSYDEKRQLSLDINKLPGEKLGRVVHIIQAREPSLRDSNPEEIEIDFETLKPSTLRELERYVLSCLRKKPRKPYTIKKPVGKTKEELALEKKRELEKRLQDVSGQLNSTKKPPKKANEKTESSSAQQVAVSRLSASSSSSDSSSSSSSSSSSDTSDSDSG
Sequence of Protein cereblon/Bromodomain-containing protein 2 (Homo sapiens) (Q96SW2 whole entry, looked up): as the sequence (Q96SW2 whole entry, looked up, other chains not shown) above

A549 [6] = test: Upregulation of p21 protein expression in human A549 cells at 100 nM measured after 24 hrs; type: functional, cell-based

- Activity [1]: Active
- Activity [2]: Active
- Activity [5]: Active
Structure (SMILES): CCn1nc(C2CC2)cc1Nc1nc(C(=O)NCCCCCc2cccc3c2CN(C2CCC(=O)NC2=O)C3=O)nc2[nH]c3cc(-c4c(C)noc4C)c(OC)cc3c12 (stereo unspecified)
- Activity (A549 [3]): Tde
- Activity (A549 [4]): Dose-Dependent Effect
- Activity (A549 [6]): Active
